Laboratory results as given in patent publication US20230220035A1 (DONG-A ST CO., LTD., published 2023).
*1 amine or outer side, *2 acyl side, *3 side chain or, on linkers, in order; H or OH if unused. Side-chain parts run from the residue outwards. [ ]: non-standard residue; d: D form. The star is where a group is joined. C18 diacid = O=C(O)CCCCCCCCCCCCCCCCC(=O)*; γGlu = O=C(O)[C@H](CCC(=O)[*:2])N[*:1]; C14 diacid = O=C(O)CCCCCCCCCCCCC(=O)*; Stearoyl = CCCCCCCCCCCCCCCCCC(=O)*; AEEA = NCCOCCOCC(=O)O; Aib = CC(C)(N)C(=O)O

Assays:
[1] = biological target: glucagon receptor (Homo sapiens, UniProt P47871); test: Human glucagon receptor activation assay (CRE-luciferase); format: cell-based; design: host or cells: CHO-K1; settings: CHO-K1 cells transiently transfected; for Emax: 6 h, relative to glucagon, read-out: GCG receptor Maximum activation (% vs GCG); for EC50: 6 hours, 0.1% BSA, read-out: GCG receptor EC50
Protocol: (§1) Then, the resulting increased luciferase activity was evaluated as a measurement of the effect on each receptor activation.
(§2) For positive control, endogenous ligand GLP-1 or glucagon was used for respective evaluation. The above-mentioned acylated oxyntomodulin peptide analogs of Comparative Example 8-12 were synthesized and used as comparative examples.
(§3) After 3 hours of transfection, medium was exchanged to Alpha Minimal Essential Medium (α-MEM) comprising 10% fetal bovine serum (FBS). Next day, the medium was exchanged to α-MEM comprising the acylated oxyntomodulin peptide analog of the present invention and 0.1% bovine serum albumin (BSA). After 6 hours, dual luciferase assay reagent (Promega) was added in the same amount as the medium in which the cells were submerged, and firefly luciferase and Renilla luciferase activities were successively measured. Firefly luciferase activity values were corrected against Renilla luciferase activity to yield transfection efficiency.

[2] = biological target: GLP-1 receptor (Homo sapiens, UniProt P43220); test: Human GLP-1 receptor activation assay (CRE-luciferase); format: cell-based; design: host or cells: CHO-K1; settings: for Emax: CHO-K1, 6 h, read-out: GLP-1 receptor Maximum activation (% vs GLP-1); for EC50: CHO-K1 cells transiently transfected, luciferase, 6 hours, 0.1% BSA
Protocol: as §1, §2, §3

[3] = in vivo; settings: cynomolgus monkey, sc
From the text: Cynomolgus monkeys were used to evaluate the pharmacokinetics in monkeys of the acylated oxyntomodulin peptide analogs according to the present invention.

[4] = biological target: Human glucagon receptor (human, UniProt P47871); test: cell-based or functional assay
[5] = biological target: Human GLP-1 receptor (human, UniProt P43220); test: cell-based or functional assay

glucagon receptor, sequence (P47871 26-477): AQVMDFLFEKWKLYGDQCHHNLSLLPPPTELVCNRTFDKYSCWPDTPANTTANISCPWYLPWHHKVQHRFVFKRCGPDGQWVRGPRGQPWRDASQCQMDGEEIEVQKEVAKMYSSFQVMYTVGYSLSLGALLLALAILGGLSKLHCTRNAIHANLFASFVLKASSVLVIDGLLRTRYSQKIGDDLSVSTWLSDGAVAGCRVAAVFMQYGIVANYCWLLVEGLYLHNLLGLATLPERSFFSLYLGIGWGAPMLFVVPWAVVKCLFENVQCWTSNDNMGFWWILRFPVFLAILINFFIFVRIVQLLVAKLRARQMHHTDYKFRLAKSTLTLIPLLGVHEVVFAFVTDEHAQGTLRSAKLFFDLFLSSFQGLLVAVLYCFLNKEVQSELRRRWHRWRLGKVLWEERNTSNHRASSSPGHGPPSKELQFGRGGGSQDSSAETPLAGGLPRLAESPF
GLP-1 receptor, sequence (P43220 24-463): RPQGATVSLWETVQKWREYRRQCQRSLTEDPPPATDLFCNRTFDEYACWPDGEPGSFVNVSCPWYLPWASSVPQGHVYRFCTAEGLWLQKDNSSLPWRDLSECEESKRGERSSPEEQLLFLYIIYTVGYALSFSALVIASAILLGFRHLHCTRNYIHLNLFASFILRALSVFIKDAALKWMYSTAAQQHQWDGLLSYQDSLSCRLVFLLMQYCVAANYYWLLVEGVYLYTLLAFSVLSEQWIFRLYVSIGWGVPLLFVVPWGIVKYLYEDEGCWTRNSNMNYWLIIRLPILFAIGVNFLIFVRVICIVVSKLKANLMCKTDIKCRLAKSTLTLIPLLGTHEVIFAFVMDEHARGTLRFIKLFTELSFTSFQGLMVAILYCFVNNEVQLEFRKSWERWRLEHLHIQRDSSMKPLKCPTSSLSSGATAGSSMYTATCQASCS

## CCCCCCCCCCCCCCCCCC(=O)N[C@@H](CCC(=O)NCCOCCOCC(=O)NCCOCCOCC(=O)NCCCC[C@H](NC(=O)[C@H](CC(=O)O)NC(=O)[C@H](CO)NC(=O)[C@@H](NC(=O)[C@H](Cc1ccccc1)NC(=O)[C@@H](NC(=O)CNC(=O)[C@H](CCC(N)=O)NC(=O)C(C)(C)NC(=O)[C@@H](N)Cc1c[nH]cn1)[C@@H](C)O)[C@@H](C)O)C(=O)N[C@@H](CO)C(=O)N[C@@H](CCCCN)C(=O)N[C@@H](Cc1ccc(O)cc1)C(=O)N[C@@H](CC(C)C)C(=O)N[C@@H](CC(=O)O)C(=O)NC(C)(C)C(=O)N[C@@H](CCCNC(=N)N)C(=O)N[C@@H](CCCNC(=N)N)C(=O)N[C@@H](C)C(=O)N[C@@H](CCC(N)=O)C(=O)N[C@@H](CC(=O)O)C(=O)N[C@@H](Cc1ccccc1)C(=O)N[C@H](C(=O)N[C@@H](CCC(N)=O)C(=O)N[C@@H](Cc1c[nH]c2ccccc12)C(=O)N[C@@H](CC(C)C)C(=O)N[C@@H](CCSC)C(=O)N[C@@H](CC(N)=O)C(=O)N[C@H](C(=O)N[C@@H](CCCCN)C(=O)N[C@@H](CCC(=O)O)C(=O)N[C@@H](Cc1ccc(O)cc1)C(=O)N[C@@H](CCC(=O)O)C(=O)N[C@@H](CCCCNC(=O)CCCCCCCCCCCCC(N)=O)C(=O)N[C@@H](CCC(=O)O)C(=O)N[C@@H](Cc1ccc(O)cc1)C(=O)N[C@@H](CCC(=O)O)C(=O)O)[C@@H](C)O)C(C)C)C(=O)O [Compound 10]
[1]
  Emax: 110%
  EC50: < 0.1 nM
[2]
  Emax: 105%
  EC50: < 0.1 nM
[3]; Monkey PK (S.C. half-life)
  half-life: < 6 h
[3]; monkey PK half-life
  half-life: < 12 h

## CCCCCCCCCCCCCCCCCC(=O)N[C@@H](CCC(=O)NCCOCCOCC(=O)NCCOCCOCC(=O)NCCCC[C@H](NC(=O)[C@H](CC(=O)O)NC(=O)[C@H](CO)NC(=O)[C@@H](NC(=O)[C@H](Cc1ccccc1)NC(=O)[C@@H](NC(=O)CNC(=O)[C@H](CCC(N)=O)NC(=O)C(C)(C)NC(=O)[C@@H](N)Cc1c[nH]cn1)[C@@H](C)O)[C@@H](C)O)C(=O)N[C@@H](CO)C(=O)N[C@@H](CCCCN)C(=O)N[C@@H](Cc1ccc(O)cc1)C(=O)N[C@@H](CC(C)C)C(=O)N[C@@H](CC(=O)O)C(=O)NC(C)(C)C(=O)N[C@@H](CCCNC(=N)N)C(=O)N[C@@H](CCCNC(=N)N)C(=O)N[C@@H](C)C(=O)N[C@@H](CCC(N)=O)C(=O)N[C@@H](CC(=O)O)C(=O)N[C@@H](Cc1ccccc1)C(=O)N[C@H](C(=O)N[C@@H](CCC(N)=O)C(=O)N[C@@H](Cc1c[nH]c2ccccc12)C(=O)N[C@@H](CC(C)C)C(=O)N[C@@H](CCSC)C(=O)N[C@@H](CC(N)=O)C(=O)N[C@H](C(=O)N[C@@H](CCCCN)C(=O)N[C@@H](CCC(=O)O)C(=O)N[C@@H](Cc1ccc(O)cc1)C(=O)N[C@@H](CCC(=O)O)C(=O)N[C@@H](CCCCNC(=O)CCCCCCCCCCCCCCC(N)=O)C(=O)N[C@@H](CCC(=O)O)C(=O)N[C@@H](Cc1ccc(O)cc1)C(=O)N[C@@H](CCC(=O)O)C(=O)O)[C@@H](C)O)C(C)C)C(=O)O [Compound 11]
[1]
  Emax: 98.5%
  EC50: < 0.1 nM
[2]
  Emax: 92.8%
  EC50: < 0.1 nM
[3]; Monkey PK (S.C. half-life)
  half-life: 6 to 12 h
[3]; monkey PK half-life
  half-life: < 12 h

## CCCCCCCCCCCCCCCCCC(=O)N[C@@H](CCC(=O)NCCOCCOCC(=O)NCCOCCOCC(=O)NCCCC[C@H](NC(=O)[C@H](CC(=O)O)NC(=O)[C@H](CO)NC(=O)[C@@H](NC(=O)[C@H](Cc1ccccc1)NC(=O)[C@@H](NC(=O)CNC(=O)[C@H](CCC(N)=O)NC(=O)C(C)(C)NC(=O)[C@@H](N)Cc1c[nH]cn1)[C@@H](C)O)[C@@H](C)O)C(=O)N[C@@H](CO)C(=O)N[C@@H](CCCCN)C(=O)N[C@@H](Cc1ccc(O)cc1)C(=O)N[C@@H](CC(C)C)C(=O)N[C@@H](CC(=O)O)C(=O)NC(C)(C)C(=O)N[C@@H](CCCNC(=N)N)C(=O)N[C@@H](CCCNC(=N)N)C(=O)N[C@@H](C)C(=O)N[C@@H](CCC(N)=O)C(=O)N[C@@H](CC(=O)O)C(=O)N[C@@H](Cc1ccccc1)C(=O)N[C@H](C(=O)N[C@@H](CCC(N)=O)C(=O)N[C@@H](Cc1c[nH]c2ccccc12)C(=O)N[C@@H](CC(C)C)C(=O)N[C@@H](CCSC)C(=O)N[C@@H](CC(N)=O)C(=O)N[C@H](C(=O)N[C@@H](CCCCN)C(=O)N[C@@H](CCC(=O)O)C(=O)N[C@@H](Cc1ccc(O)cc1)C(=O)N[C@@H](CCC(=O)O)C(=O)N[C@@H](CCCCNC(=O)COCCOCCNC(=O)COCCOCCNC(=O)COCCOCCNC(=O)CCCCCCCCCCCCCCC)C(=O)N[C@@H](CCC(=O)O)C(=O)N[C@@H](Cc1ccc(O)cc1)C(=O)N[C@@H](CCC(=O)O)C(=O)O)[C@@H](C)O)C(C)C)C(=O)O [Compound 12]
[1]
  Emax: 89.6%
  EC50: < 0.1 nM
[2]
  Emax: 102%
  EC50: < 0.1 nM
[3]; Monkey PK (S.C. half-life)
  half-life: 6 to 12 h
[3]; monkey PK half-life
  half-life: < 12 h

B1: Compound 1 (peptide)
peptide: H-H[Aib]QGTFTSDK([AEEA-AEEA-γGlu-Stearoyl])SKYLD[Aib]RRAQDFVQWLMNTKEYEK(C14 diacid)EYE-OH
SMILES: CCCCCCCCCCCCCCCCCC(=O)N[C@@H](CCC(=O)NCCOCCOCC(=O)NCCOCCOCC(=O)NCCCC[C@H](NC(=O)[C@H](CC(=O)O)NC(=O)[C@H](CO)NC(=O)[C@@H](NC(=O)[C@H](Cc1ccccc1)NC(=O)[C@@H](NC(=O)CNC(=O)[C@H](CCC(N)=O)NC(=O)C(C)(C)NC(=O)[C@@H](N)Cc1c[nH]cn1)[C@@H](C)O)[C@@H](C)O)C(=O)N[C@@H](CO)C(=O)N[C@@H](CCCCN)C(=O)N[C@@H](Cc1ccc(O)cc1)C(=O)N[C@@H](CC(C)C)C(=O)N[C@@H](CC(=O)O)C(=O)NC(C)(C)C(=O)N[C@@H](CCCNC(=N)N)C(=O)N[C@@H](CCCNC(=N)N)C(=O)N[C@@H](C)C(=O)N[C@@H](CCC(N)=O)C(=O)N[C@@H](CC(=O)O)C(=O)N[C@@H](Cc1ccccc1)C(=O)N[C@H](C(=O)N[C@@H](CCC(N)=O)C(=O)N[C@@H](Cc1c[nH]c2ccccc12)C(=O)N[C@@H](CC(C)C)C(=O)N[C@@H](CCSC)C(=O)N[C@@H](CC(N)=O)C(=O)N[C@H](C(=O)N[C@@H](CCCCN)C(=O)N[C@@H](CCC(=O)O)C(=O)N[C@@H](Cc1ccc(O)cc1)C(=O)N[C@@H](CCC(=O)O)C(=O)N[C@@H](CCCCNC(=O)CCCCCCCCCCCCC(=O)O)C(=O)N[C@@H](CCC(=O)O)C(=O)N[C@@H](Cc1ccc(O)cc1)C(=O)N[C@@H](CCC(=O)O)C(=O)O)[C@@H](C)O)C(C)C)C(=O)O
[4]
  EC50: < 0.1 nM
  Maximum activation (% vs GCG): 107%
[5]
  EC50: < 0.1 nM
  Maximum activation (% vs GLP-1): 102%

B2: Compound 3 (peptide)
peptide: H-H[Aib]QGTFTSDK([AEEA-AEEA-γGlu-Stearoyl])SKYLD[Aib]RRAQDFVQWLMNTKEYEK(C18 diacid)EYE-OH
SMILES: CCCCCCCCCCCCCCCCCC(=O)N[C@@H](CCC(=O)NCCOCCOCC(=O)NCCOCCOCC(=O)NCCCC[C@H](NC(=O)[C@H](CC(=O)O)NC(=O)[C@H](CO)NC(=O)[C@@H](NC(=O)[C@H](Cc1ccccc1)NC(=O)[C@@H](NC(=O)CNC(=O)[C@H](CCC(N)=O)NC(=O)C(C)(C)NC(=O)[C@@H](N)Cc1c[nH]cn1)[C@@H](C)O)[C@@H](C)O)C(=O)N[C@@H](CO)C(=O)N[C@@H](CCCCN)C(=O)N[C@@H](Cc1ccc(O)cc1)C(=O)N[C@@H](CC(C)C)C(=O)N[C@@H](CC(=O)O)C(=O)NC(C)(C)C(=O)N[C@@H](CCCNC(=N)N)C(=O)N[C@@H](CCCNC(=N)N)C(=O)N[C@@H](C)C(=O)N[C@@H](CCC(N)=O)C(=O)N[C@@H](CC(=O)O)C(=O)N[C@@H](Cc1ccccc1)C(=O)N[C@H](C(=O)N[C@@H](CCC(N)=O)C(=O)N[C@@H](Cc1c[nH]c2ccccc12)C(=O)N[C@@H](CC(C)C)C(=O)N[C@@H](CCSC)C(=O)N[C@@H](CC(N)=O)C(=O)N[C@H](C(=O)N[C@@H](CCCCN)C(=O)N[C@@H](CCC(=O)O)C(=O)N[C@@H](Cc1ccc(O)cc1)C(=O)N[C@@H](CCC(=O)O)C(=O)N[C@@H](CCCCNC(=O)CCCCCCCCCCCCCCCCC(=O)O)C(=O)N[C@@H](CCC(=O)O)C(=O)N[C@@H](Cc1ccc(O)cc1)C(=O)N[C@@H](CCC(=O)O)C(=O)O)[C@@H](C)O)C(C)C)C(=O)O
[4]
  Maximum activation (% vs GCG): 98.3%
[5]
  Maximum activation (% vs GLP-1): 98.3%

B3: Compound 4 (peptide)
peptide: H-H[Aib]QGTFTSDK([AEEA-AEEA-γGlu-Stearoyl])SKYLD[Aib]RRAQDFVQWLMNTKEYEK([Lys-C18 diacid])EYE-OH
[4]
  EC50: ≥ 1 nM
  Maximum activation (% vs GCG): 95.4%
[5]
  Maximum activation (% vs GLP-1): 87.9%
